Results: paper PMC8881501, “Identification of SARS-CoV-2 inhibitors targeting Mpro and PLpro using in-cell-protease assay” (Communications Biology, 2022)
Values joined by “and” are separate entries in the source; they are usually repeats but may differ in a detail not shown here. Equal entries are not always repeated. Structures can show the parent of a compound that is named as a salt. Where two headings read alike, the source gives them in different places.

Columns and labels:
SARS-CoV-2 Mpro [1] = target: T1, SARS-CoV-2 Mpro (Severe acute respiratory syndrome coronavirus 2, UniProt P0DTC1); assay: In-cell protease (ICP) assay, Mpro construct in HEK293T cells; assay type: cell-based; settings: for remaining activity at 1 µM / remaining activity at 10 µM: HEK-293T; for remaining activity at 1 µM: read-out: mEmerald-NLS nuclear/total fluorescence (protease activity) normalized to untreated cells, 1 μM, HEK293T, Fig 2A replicate data, untreated control = 100; for remaining activity at 10 µM: read-out: mEmerald-NLS nuclear/total fluorescence (protease activity) normalized to untreated cells, 10 μM, HEK293T, Fig 2A replicate data, untreated control = 100
HEK293T cells = assay: Cell viability (alamarBlue) on HEK293T cells; settings: replicate data
SARS-CoV-2 Mpro [2] = target: T1, SARS-CoV-2 Mpro; assay: biochemical; settings: for inhibition of Mpro protease activity: FRET assay
Description: A cleavage site is indicated by an asterisk. […] N = 3, values are represented as mean ± SE.
For the determination of half-maximal inhibitory concentrations (IC50) of MG-101 and GC376 (BPS Bioscience), a synthetic substrate of Mpro containing FRET pair and Mpro nsp4/5 cleavage site (indicated by an arrow, Dabcyl-KTSAVLQ ↓ SGFRKME-Edans) (BPS Bioscience) was used for the FRET-based cleavage assay. The assay was performed in 96-well, black, flat-bottomed microtiter plates (Greiner Bio-One, Germany) with a final volume of 50 μl. Mpro (a final concentration of 200 nM) was pre-incubated for 1 h at 22 °C with compounds at different concentrations in the assay buffer (20 mM HEPES (pH 7), 0.5 mM EDTA, 1 mM dithiothreitol, 5% glycerol). The substrate was then added at a final concentration of 10 μM to the reaction mixture and the reaction was incubated for 4 h at 22 °C. The readings for the different concentrations of the inhibitor compounds incubated with the substrate without Mpro were measured as a blank. The fluorescence signals (excitation/emission, 360 nm/460 nm) of released EDANS were measured using Infinite 200 PRO multimode plate reader (Tecan, USA). The results were plotted as dose inhibition curves using nonlinear regression with a variable slope to determine the IC50 values of inhibitor compounds using GraphPad Prism 9.0.

Mpro = settings: read-out: IC50, reported value; cited from earlier work
SARS-CoV-2 [3] = assay: microbe, parasite or virus in culture; assay type: cell-based; settings: for EC50: Severe acute respiratory syndrome coronavirus 2, Huh7.5, Huh-7.5 cells
SARS-CoV-2 [4] = assay type: cell-based; settings: Huh-7.5, MOI 0.1, 24 h.p.i., anti-N IFA
SARS-CoV-2 [5] = assay: qRT-PCR of viral RNA molecules in infected Huh-7.5 cells; assay type: cell-based; settings: Huh-7.5, 24 h.p.i.
Description: We tested the effect of selected compounds in inhibiting the spread of SARS-CoV-2 on cell monolayers was tested by immunofluorescence assay (IFA) (Fig. 5a). From the percentage of inhibition (Fig. 5b), we calculated that the PLpro inhibitors Sitagliptin and Daclastavir inhibited virus spread by 75% and 70%, respectively, compared to untreated controls (Fig. 5b). […] We next determined whether the reduction in virus spread in the inhibitor-treated cells correlates with virus replication. We extracted total RNA from infected cells treated with inhibitors and quantified the number of viral RNA molecules by quantitative real-time polymerase chain reaction (qRT-PCR) (Fig. 5c). […] However, the reduction in the number of viral RNA molecules was lower for BMS-707035 (1-log reduction), Atazanavir (0.5-log), and Lomibuvir (0.5-log).
Fig. 5 Effect of compounds selected from ICP assay on SARS-CoV-2 replication. a Huh-7.5 cells positive for SARS-CoV-2 determined by immunofluorescence assay. Huh-7.5 cells pre-treated for 24 h with inhibitors were infected with SARS-CoV-2 at an MOI of 0.1. At 24 h.p.i., cells were fixed with paraformaldehyde and probed with anti-N (SARS CoV-2 nucleocapsid) primary antibody and FITC-conjugated goat anti-rabbit secondary antibody (green, infected cells). Nuclei were stained with Hoechst stain and confocal images were acquired. b The ratio of infected to uninfected cells for each treatment was calculated using Nikon Elements software and normalized to untreated controls (n = 5). c Quantification of SARS-CoV-2 RNA molecules from infected cells treated with inhibitors as indicated (n = 3).
Huh-7.5 cells grown in DMEM in 6 well tissue culture plates were pre-treated with different concentrations of compounds for 24 h were infected with 0.1 MOI of SARS-CoV-2. After 1 h of infection, virus-containing media were replaced with fresh media-containing compounds, and the plates were incubated at 37 °C. Untreated cells were included in the experiment as controls. After 24 h, total RNA was extracted from the cells using a Zymopure Quick-RNA extraction kit. The number of viral RNA molecules in the extracted total RNA samples was determined by quantitative RT-PCR on a QuantStudio-3 machine (Applied BioSystems) using primers –Forward […] and Reverse […]. The Ct values obtained were used to calculate the number of RNA molecules using a standard curve of Ct versus RNA molecules.

SARS-CoV-2 [6] = assay: Time of addition (pre-treatment) experiment in Huh-7.5 cells, plaque assay; assay type: cell-based; settings: Huh-7.5, pretreatment
[7] = Cytotoxicity assay (alamarBlue) on Huh-7.5 cells; settings: human, CC50, Huh-7.5 cells, alamarBlue reduction
Huh-7.5 cells = assay: Cytotoxicity assay (alamarBlue) on Huh-7.5 cells; settings: Huh-7.5 cells, alamarBlue reduction
SARS-CoV-2 [8] = settings: Vero E6 cells; cited from earlier work
in vitro = settings: human
SARS-CoV-2 PLpro [9] = target: T2, SARS-CoV-2 PLpro (Severe acute respiratory syndrome coronavirus 2, UniProt P0DTC1); assay: In vitro PLpro protease inhibition assay (Z-RLRGG-AMC); assay type: biochemical
SARS-CoV-2 PLpro [10] = target: T2, SARS-CoV-2 PLpro; assay: cell-based; settings: HEK-293T, read-out: mEmerald-NLS nuclear/total fluorescence (protease activity) normalized to untreated cells, 10 μM, HEK293T, Fig 2A replicate data, untreated control = 100
COVID-19 = tested on: COVID-19; parameters: method as in PMID 32994187; settings: cited from earlier work
[11] = MOI 0.1, 24 h.p.i., plaque assay

Row | Compound | remaining activity at 1 µM (SARS-CoV-2 Mpro [1]) [%] | remaining activity at 10 µM (SARS-CoV-2 Mpro [1]) [%] | % normalised alamar Blue reduction at 10μM (HEK293T cells) | EC50 (SARS-CoV-2 [3]; [11]) [nM] | inhibition of virus spread compared to untreated controls (SARS-CoV-2 [4]) | inhibition of Mpro protease activity (SARS-CoV-2 Mpro [2]) | other results
1 | CC(C)(C)NC(=O)N[C@H](C(=O)N1C[C@H]2[C@@H]([C@H]1C(=O)NC(CC1CCC1)C(=O)C(N)=O)C2(C)C)C(C)(C)C (stereo partly shown) [Bocoprevir] | 71 | 69 | – | – | – | – | –
2 | Cc1cccc(C)c1OCC(=O)N[C@@H](Cc1ccccc1)[C@@H](O)C[C@H](Cc1ccccc1)NC(=O)[C@H](C(C)C)N1CCCNC1=O [Lopinavir] | 80 | 65 | – | – | – | – | –
3 | C=C[C@@H]1C[C@]1(NC(=O)[C@@H]1C[C@@H](Oc2ncc(OC)c3ccc(Cl)cc23)CN1C(=O)[C@@H](NC(=O)OC(C)(C)C)C(C)(C)C)C(=O)NS(=O)(=O)C1CC1 [Asunaprevir] | 88 | 69 | 78% and 88% and 90% | – | – | – | –
4 | CC(C)C[C@H](NC(=O)OCc1ccccc1)C(=O)N[C@@H](CC1CCNC1=O)C(O)S(=O)(=O)O (stereo partly shown) [GC376] | – | – | – | – | – | – | IC50 (SARS-CoV-2 Mpro [2]): 130 ± 70 nM; IC50 (Mpro): 190 nM
5 | Cc1c(O)cccc1C(=O)N[C@@H](CSc1ccccc1)[C@H](O)CN1C[C@H]2CCCC[C@H]2C[C@H]1C(=O)NC(C)(C)C [Nelfinavir mesylate] | 60 | 45 | 88% and 75.67% and 90% | 70 | 95% | not found to be effectively inhibiting the Mpro protease activity | virus titer at 24 h.p.i., Fig S2B data (SARS-CoV-2 [3]; 1 µM final concentration (each), Huh-7.5, replicates): 80000 and 64000 and 88000; reduction in the number of viral RNA molecules compared to untreated cells (SARS-CoV-2 [5]): approximately 3 log; reduction in the number of viral RNA molecules compared to untreated cells (SARS-CoV-2 [5]; listed as Nelfinavir): 3 log; effect of pre-treatment on virus production / entry (SARS-CoV-2 [6]): only minimal effect on virus production; CC50 at 24 h [7]: 26000 nM; CC50 (Huh-7.5 cells): 26000 nM
6 | COC(=O)N[C@H](C(=O)N1CCC[C@H]1c1nc(-c2ccc(-c3ccc(-c4c[nH]c([C@@H]5CCCN5C(=O)[C@@H](NC(=O)OC)C(C)C)n4)cc3)cc2)c[nH]1)C(C)C [Daclatasvir (BMS-790052)] | – | – | 80% and 88% and 75% | – | – | – | –
7 | COC(=O)N[C@H](C(=O)N[C@@H](Cc1ccccc1)[C@@H](O)CN(Cc1ccc(-c2ccccn2)cc1)NC(=O)[C@@H](NC(=O)OC)C(C)(C)C)C(C)(C)C [Atazanavir] | 89 | 50 | – | 60 | below 50% | not found to be effectively inhibiting the Mpro protease activity | EC50 (SARS-CoV-2 [8]): 500 ± 80 nM; % normalised alamar Blue reduction at 10μM (HEK293T cells; listed as Atazanavir sulfate): 89% and 95.2% and 90.5%; CC50 at 24 h [7]: 77200 nM
8 | CC(C)(C)C#Cc1cc(N(C(=O)[C@H]2CC[C@H](C)CC2)[C@H]2CC[C@H](O)CC2)c(C(=O)O)s1 [Lomibuvir] | 90 | 44 | – | 70 | below 50% | not found to be effectively inhibiting the Mpro protease activity | CC50 at 24 h (in vitro; CC50): 48000 nM
9 | COC(=O)N[C@H](C(=O)N1CCC[C@H]1c1nc(-c2ccc(-c3ccc(-c4c[nH]c([C@@H]5CCCN5C(=O)[C@@H](NC(=O)OC)C(C)C)n4)cc3)cc2)c[nH]1)C(C)C [Daclastavir HCl] | – | – | – | 1590 | 70% | – | reduction in the number of viral RNA molecules compared to untreated cells (SARS-CoV-2 [5]): 2 log; IC50 (SARS-CoV-2 PLpro [9]): 1840 ± 256 nM; % normalised alamar Blue reduction at 10μM (HEK293T cells; listed as Daclatasvir dihydrochloride): 89% and 80% and 96%; CC50 at 24 h [7]: 32100 nM
10 | CC(C)CN(C[C@@H](O)[C@H](Cc1ccccc1)NC(=O)O[C@H]1CO[C@H]2OCC[C@H]21)S(=O)(=O)c1ccc(N)cc1 [Darunavir] | – | – | 80% and 97% and 79% | – | – | – | –
11 | Cn1c(N2CCCCS2(=O)=O)nc(C(=O)NCc2ccc(F)cc2)c(O)c1=O [BMS-707035] | 79 | 60 | – | – | 81% | not found to be effectively inhibiting the Mpro protease activity | EC50 (SARS-CoV-2 [3]): 270 nM; CC50 at 24 h (in vitro; CC50): 42200 nM
12 | COc1cc(O)c(CC=C(C)C)c2c1C(=O)CC(c1ccc(O)cc1)O2 (stereo not shown) [Isoxanthohumol] | 90 | 60 | – | – | – | – | –
13 | N[C@@H](CC(=O)N1CCn2c(nnc2C(F)(F)F)C1)Cc1cc(F)c(F)cc1F [Sitagliptin] | – | – | – | 320 | 75% | – | effect on Mpro activity in cells (SARS-CoV-2 Mpro [1]; ICP assay): does not inhibit Mpro activity; remaining activity at 10 µM (SARS-CoV-2 PLpro [10]): 56%; Selectivity index SI = CC50/EC50 (SARS-CoV-2 [3]): 67; virus titer at 24 h.p.i., Fig 6A data (SARS-CoV-2 [3]; single drug 1 μM, Huh 7.5, replicates): 56000 and 64000 and 40000; reduction in the number of viral RNA molecules compared to untreated cells (SARS-CoV-2 [5]): 2 log; IC50 (SARS-CoV-2 PLpro [9]; PLpro 300 nM, Z-RLRGG-AMC 25 μM, read-out: IC50): 1140 ± 190 nM; mortality rate (deceased patients) (COVID-19; added to standard care, vs. 37% with standard of care): 18%; improved clinical outcomes (improved patients) (COVID-19; vs. 38% with standard of care): 60%; hospital discharges (discharged patients) (COVID-19; vs. 89 with standard of care): 120; CC50 at 24 h (in vitro; CC50, Huh-7.5 cells, alamarBlue reduction): 21600 nM; CC50 (Huh-7.5 cells): 22000 nM
